Results: patent publication US10800791B2, “Triazole ACC inhibitors and uses thereof” (Gilead Apollo, LLC, priority 2015, dated 2020)
Values after ≈ are worked out from the molar mass of the structure shown. Like-named read-outs stand apart in the source and are kept apart here.

Tests used:
human (hACC2) = human (hACC2) (Homo sapiens, UniProt O00763); test: In vitro ACC inhibition assay (ADP-Glo), hACC2; assay type: biochemical; details: 5 nM ACC2, 20 μM ATP, 20 μM acetyl-CoA
Description: The detailed procedure is as follows. […] 10 μL ADP glo reagent was added. […] 20 μL kinase detection reagent was added.

Septoria tritici (St) = test: Growth inhibition assay of fungal pathogens, St; assay type: cell-based; details: Zymoseptoria tritici, 48 h, Septoria tritici; growth inhibition at 48 hours vs 2% DMSO control; read-out: Concentration at 90% Inhibition St
Description: (§1) Compounds of the present invention were evaluated in a growth inhibition assay to determine the ability to control the growth of fungal pathogens, such as Botrtyis cinerea (Bc), Collectotrichum graminicola (Cg), Diplodia maydis (Dm), Fusarium moniliforme (Fm), Fusarium virguliforme (Fv), Phytophthora capsici (Pc), Rhizoctonia solani (Rs), and Septoria tritici (St).
(§2) Compounds to be tested were dissolved in DMSO at 2.5 mg/ml to produce compound stock solutions (“stocks”). Stocks were diluted with DMSO by a five-fold dilution in a 96-well stock plate, and two sets of final concentrations of 50, 10, and 2 ppm or 2, 0.4, and 0.08 ppm were obtained in vitro. A set of positive controls was also prepared, with various concentrations of Soraphen (2, 0.4, and 0.08 ppm), Metalaxyl (1.1, 0.22, and 0.04 ppm), and Metconazole (2, 0.4, and 0.08 ppm or 0.2, 0.04, and 0.008 ppm) after the five-fold dilutions. Negative controls on each plate included 2% DMSO, water, and a blank (media+2% DMSO).
(§3) Fungal spores were isolated from previously sub-cultured plates of Botrtyis cinerea (Bc), Collectotrichum graminicola (Cg), Diplodia maydis (Dm), Fusarium moniliforme (Fm), Fusarium virguliforme (Fv), Phytophthora capsici (Pc), and Septoria tritici (St). The isolated spores were diluted to individual concentrations with a 17% V8 liquid media. For Rhizoctonia solani (Rs) and Pythium irregulare, 1.5 mm mycelial plugs were used in place of spores and/4 Potato Dextrose Broth (PDB) was used for dilution. The spore concentrations and plug sizes were based on growth curves generated at 48 hours for each pathogen.
(§4) In a second 96-well plate, the spores or mycelial plugs, media, diluted compound solutions, and controls were combined. Once the compound was added, a true final concentration of compound in each well was measured by an OD600 reading, which adjusted for any compound precipitation that might have occurred in the well. Plate readings were repeated at both 24 and 48 hours. The blank negative control was used as a background subtraction. Additional visual ratings were performed at both 24 and 48 hours for checking on precipitation and confirming efficacy. Visual and OD600 ratings of the compounds at 48 hours were compared to the 2% DMSO negative control, and the percent of pathogen growth inhibition was determined based on those values.

C. parapsilosis = test: Antifungal Activity Assay (broth microtiter MIC), C. parapsilosis; assay type: cell-based, Candida parapsilosis; details: Lodderomyces parapsilosis, ATCC22019, 48 h, ATCC 22019, 3 replicates, MIC recorded at 48 h, read-out: MIC, C. parapsilosis ATCC 22019
Method in brief: (§5)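 Susceptibility was determined by CLSI M27-A3 broth microdilution in RPMI 1640 buffered with MOPS. Growth inhibition was scored visually after 48 h.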

[1] = tested on: Fusarium virguliforme (Fv); test: Growth inhibition assay of fungal pathogens, Fv; assay type: cell-based; details: 48 h, growth inhibition at 48 hours vs 2% DMSO control, read-out: Concentration at 90% Inhibition Fv
Description: as §1, §2, §3, §4

C. albicans = test: Antifungal Activity Assay (broth microtiter MIC), C. albicans; assay type: cell-based, Candida albicans; details: Candida albicans, ATCC90028, 48 h, ATCC 90028, 3 replicates, MIC recorded at 48 h, read-out: MIC, C. albicans ATCC 90028
Method in brief: as §5

[2] = tested on: Phytophthora capsici (Pc); test: Growth inhibition assay of fungal pathogens, Pc; assay type: cell-based; details: 48 h, growth inhibition at 48 hours vs 2% DMSO control, read-out: Concentration at 90% Inhibition Pc
Description: as §1, §2, §3, §4

C. krusei = test: Antifungal Activity Assay (broth microtiter MIC), C. krusei; assay type: cell-based, Candida krusei; details: Pichia kudriavzevii, ATCC6258, 48 h, ATCC 6258, 3 replicates, MIC recorded at 48 h, read-out: MIC, C. krusei ATCC 6258
Method in brief: as §5

fungal (fACC2) = fungal (fACC2) (UniProt Q00955); details: read-out: fACC2 (in vitro ACC2 Inhibition Assay, IC50), ADP-Glo, 5 nM ACC2, 20 μM ATP, 20 μM acetyl-CoA
Rhizoctonia solani (Rs) = test: Growth inhibition assay of fungal pathogens, Rs; assay type: cell-based; details: 48 h, mycelial plugs, growth inhibition at 48 hours vs 2% DMSO control, read-out: Concentration at 90% Inhibition Rs
Diplodia maydis (Dm) = test: Growth inhibition assay of fungal pathogens, Dm; assay type: cell-based; details: Stenocarpella maydis, 48 h, Diplodia maydis; growth inhibition at 48 hours vs 2% DMSO control; read-out: Concentration at 90% Inhibition Dm
Description: as §1, §2, §3, §4

Botrtyis cinerea (Bc) = test: Growth inhibition assay of fungal pathogens, Bc; assay type: cell-based; details: 48 h, Botrtyis cinerea; growth inhibition at 48 hours vs 2% DMSO control; read-out: Concentration at 90% Inhibition Bc
Description: as §1, §2, §3, §4

[3] = tested on: Fusarium moniliforme (Fm); test: Growth inhibition assay of fungal pathogens, Fm; assay type: cell-based; details: Fusarium verticillioides, 48 h, Fusarium moniliforme; growth inhibition at 48 hours vs 2% DMSO control; read-out: Concentration at 90% Inhibition Fm
Description: as §1, §2, §3, §4

[4] = tested on: Collectotrichum graminicola (Cg); test: Growth inhibition assay of fungal pathogens, Cg; assay type: cell-based; details: 48 h, Collectotrichum graminicola; growth inhibition at 48 hours vs 2% DMSO control; read-out: Concentration at 90% Inhibition Cg
Description: as §1, §2, §3, §4

Sequence of fungal (fACC2) (Q00955 whole entry): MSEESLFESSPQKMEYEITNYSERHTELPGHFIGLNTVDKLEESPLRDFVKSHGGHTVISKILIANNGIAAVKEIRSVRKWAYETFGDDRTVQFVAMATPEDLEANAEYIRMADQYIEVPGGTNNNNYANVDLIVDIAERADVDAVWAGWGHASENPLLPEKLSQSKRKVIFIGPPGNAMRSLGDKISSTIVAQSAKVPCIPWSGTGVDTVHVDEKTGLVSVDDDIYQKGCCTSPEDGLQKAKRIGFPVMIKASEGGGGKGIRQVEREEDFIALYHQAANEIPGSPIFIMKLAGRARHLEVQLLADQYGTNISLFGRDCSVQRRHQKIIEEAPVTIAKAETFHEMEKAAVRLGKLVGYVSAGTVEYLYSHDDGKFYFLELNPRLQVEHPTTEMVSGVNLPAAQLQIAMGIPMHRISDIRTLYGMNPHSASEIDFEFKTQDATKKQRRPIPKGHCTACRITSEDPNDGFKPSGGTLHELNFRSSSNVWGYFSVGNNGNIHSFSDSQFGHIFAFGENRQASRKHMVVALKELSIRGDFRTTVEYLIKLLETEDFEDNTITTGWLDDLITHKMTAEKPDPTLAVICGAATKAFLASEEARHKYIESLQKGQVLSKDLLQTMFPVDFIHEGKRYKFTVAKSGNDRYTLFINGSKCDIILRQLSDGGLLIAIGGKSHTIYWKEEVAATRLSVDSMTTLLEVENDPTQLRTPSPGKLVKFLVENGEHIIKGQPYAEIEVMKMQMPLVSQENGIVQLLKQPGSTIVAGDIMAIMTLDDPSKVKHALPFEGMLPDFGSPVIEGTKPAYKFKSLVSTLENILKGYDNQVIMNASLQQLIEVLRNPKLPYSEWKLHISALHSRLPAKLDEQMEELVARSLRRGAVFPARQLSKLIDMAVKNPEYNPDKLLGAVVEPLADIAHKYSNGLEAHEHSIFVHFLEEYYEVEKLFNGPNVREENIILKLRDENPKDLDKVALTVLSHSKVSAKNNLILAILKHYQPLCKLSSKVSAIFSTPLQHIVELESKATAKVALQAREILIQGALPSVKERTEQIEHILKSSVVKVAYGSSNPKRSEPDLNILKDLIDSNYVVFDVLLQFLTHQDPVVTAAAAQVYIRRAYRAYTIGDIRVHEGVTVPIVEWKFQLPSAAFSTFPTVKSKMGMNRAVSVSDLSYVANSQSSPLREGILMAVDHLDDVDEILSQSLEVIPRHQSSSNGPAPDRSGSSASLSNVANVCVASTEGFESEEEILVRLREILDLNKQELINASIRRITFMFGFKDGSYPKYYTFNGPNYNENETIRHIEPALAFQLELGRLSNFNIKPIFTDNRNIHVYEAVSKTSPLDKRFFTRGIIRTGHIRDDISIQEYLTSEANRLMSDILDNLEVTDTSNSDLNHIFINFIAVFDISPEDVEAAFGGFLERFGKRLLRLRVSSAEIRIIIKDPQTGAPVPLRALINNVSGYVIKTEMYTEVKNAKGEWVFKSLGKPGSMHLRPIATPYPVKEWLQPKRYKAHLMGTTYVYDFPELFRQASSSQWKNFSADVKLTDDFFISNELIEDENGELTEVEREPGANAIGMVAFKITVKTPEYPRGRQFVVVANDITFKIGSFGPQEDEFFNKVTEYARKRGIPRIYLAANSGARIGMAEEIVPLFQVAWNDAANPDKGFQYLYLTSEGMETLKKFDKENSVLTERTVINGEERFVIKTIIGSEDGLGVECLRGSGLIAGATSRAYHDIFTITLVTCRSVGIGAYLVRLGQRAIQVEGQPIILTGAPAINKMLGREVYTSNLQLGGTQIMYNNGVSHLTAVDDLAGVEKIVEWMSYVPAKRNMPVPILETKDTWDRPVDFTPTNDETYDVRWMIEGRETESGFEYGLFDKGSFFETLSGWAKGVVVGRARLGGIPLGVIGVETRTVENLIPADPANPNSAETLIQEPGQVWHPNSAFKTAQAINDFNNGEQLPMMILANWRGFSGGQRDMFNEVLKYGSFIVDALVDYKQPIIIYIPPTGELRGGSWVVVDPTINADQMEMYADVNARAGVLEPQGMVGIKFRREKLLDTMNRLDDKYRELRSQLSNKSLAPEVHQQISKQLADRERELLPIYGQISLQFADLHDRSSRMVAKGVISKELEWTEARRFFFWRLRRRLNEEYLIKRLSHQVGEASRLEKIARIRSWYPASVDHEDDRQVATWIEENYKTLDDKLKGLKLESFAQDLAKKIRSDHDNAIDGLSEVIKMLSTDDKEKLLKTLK
Sequence of human (hACC2) (O00763 whole entry): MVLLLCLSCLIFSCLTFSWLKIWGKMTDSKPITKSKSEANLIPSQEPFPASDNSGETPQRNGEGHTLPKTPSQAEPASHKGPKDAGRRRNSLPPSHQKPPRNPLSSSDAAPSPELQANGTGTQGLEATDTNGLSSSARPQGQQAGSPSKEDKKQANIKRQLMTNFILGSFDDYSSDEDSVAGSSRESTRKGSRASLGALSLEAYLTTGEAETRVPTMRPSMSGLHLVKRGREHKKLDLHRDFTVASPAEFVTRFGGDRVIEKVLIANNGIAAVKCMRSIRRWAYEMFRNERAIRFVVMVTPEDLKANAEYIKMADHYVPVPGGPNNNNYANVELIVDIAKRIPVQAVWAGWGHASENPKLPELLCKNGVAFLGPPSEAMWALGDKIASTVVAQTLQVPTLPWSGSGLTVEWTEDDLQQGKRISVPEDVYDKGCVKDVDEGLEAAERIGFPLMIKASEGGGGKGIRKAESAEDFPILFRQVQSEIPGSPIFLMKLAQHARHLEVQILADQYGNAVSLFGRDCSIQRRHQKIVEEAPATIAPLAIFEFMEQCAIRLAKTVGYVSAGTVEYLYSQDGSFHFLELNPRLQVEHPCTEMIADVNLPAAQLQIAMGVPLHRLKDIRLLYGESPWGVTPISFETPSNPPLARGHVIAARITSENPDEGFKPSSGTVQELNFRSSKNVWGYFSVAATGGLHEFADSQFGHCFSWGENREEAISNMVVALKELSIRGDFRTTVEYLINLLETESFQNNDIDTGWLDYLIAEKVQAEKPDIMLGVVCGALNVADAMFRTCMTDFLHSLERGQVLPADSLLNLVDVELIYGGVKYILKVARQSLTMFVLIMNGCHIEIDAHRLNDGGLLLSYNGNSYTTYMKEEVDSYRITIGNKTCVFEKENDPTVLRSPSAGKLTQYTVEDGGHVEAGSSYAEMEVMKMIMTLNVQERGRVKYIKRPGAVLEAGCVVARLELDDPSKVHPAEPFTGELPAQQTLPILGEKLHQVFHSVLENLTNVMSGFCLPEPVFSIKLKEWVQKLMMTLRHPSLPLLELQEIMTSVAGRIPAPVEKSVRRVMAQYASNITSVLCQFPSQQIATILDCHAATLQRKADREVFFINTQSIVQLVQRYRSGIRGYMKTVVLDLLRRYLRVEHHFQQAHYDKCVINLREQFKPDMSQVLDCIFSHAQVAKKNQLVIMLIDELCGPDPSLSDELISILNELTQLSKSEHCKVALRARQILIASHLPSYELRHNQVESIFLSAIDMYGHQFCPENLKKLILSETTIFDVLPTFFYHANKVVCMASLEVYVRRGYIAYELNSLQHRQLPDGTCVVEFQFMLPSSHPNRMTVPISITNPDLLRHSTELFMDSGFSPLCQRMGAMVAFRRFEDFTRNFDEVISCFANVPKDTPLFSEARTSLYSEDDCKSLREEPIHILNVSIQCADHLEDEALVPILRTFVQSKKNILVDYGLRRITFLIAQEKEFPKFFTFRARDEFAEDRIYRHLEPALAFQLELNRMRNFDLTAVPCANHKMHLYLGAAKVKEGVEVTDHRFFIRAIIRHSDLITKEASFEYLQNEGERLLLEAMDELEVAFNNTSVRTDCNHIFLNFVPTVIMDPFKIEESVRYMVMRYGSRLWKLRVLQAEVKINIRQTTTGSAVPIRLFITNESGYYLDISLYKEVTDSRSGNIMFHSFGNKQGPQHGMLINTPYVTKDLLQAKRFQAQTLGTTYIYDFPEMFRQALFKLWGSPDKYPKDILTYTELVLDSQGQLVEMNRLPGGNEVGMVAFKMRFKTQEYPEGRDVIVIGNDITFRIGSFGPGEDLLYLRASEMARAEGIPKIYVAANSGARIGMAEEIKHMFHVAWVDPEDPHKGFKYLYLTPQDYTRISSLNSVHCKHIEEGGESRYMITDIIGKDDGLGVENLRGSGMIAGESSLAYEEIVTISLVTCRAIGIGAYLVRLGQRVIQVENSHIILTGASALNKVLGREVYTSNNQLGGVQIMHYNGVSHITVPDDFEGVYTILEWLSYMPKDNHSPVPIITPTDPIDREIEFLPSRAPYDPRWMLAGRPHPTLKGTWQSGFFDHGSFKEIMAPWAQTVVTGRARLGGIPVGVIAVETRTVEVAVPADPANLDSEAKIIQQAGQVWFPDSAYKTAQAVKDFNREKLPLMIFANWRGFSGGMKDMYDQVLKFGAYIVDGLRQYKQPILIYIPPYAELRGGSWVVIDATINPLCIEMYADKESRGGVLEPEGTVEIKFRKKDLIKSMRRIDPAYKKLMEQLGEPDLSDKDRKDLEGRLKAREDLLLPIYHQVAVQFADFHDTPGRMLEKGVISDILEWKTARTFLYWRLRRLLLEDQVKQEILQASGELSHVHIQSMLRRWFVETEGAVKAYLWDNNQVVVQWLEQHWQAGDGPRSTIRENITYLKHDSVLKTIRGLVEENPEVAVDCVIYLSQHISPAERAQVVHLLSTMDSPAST

Row | Structure (SMILES) | IC50 (human (hACC2); Table 2a) | IC50 (human (hACC2); Table 2b, additional results) | IC90 (Septoria tritici (St)) | MIC (C. parapsilosis; Table 3a) | MIC (C. parapsilosis; Table 3b (additional results)) | IC90 [1] | MIC (C. albicans; Table 3a) | MIC (C. albicans; Table 3b (additional results)) | IC90 [2] | MIC (C. krusei; Table 3a) | MIC (C. krusei; Table 3b (additional results)) | IC50 (fungal (fACC2); Table 2a) | IC50 (fungal (fACC2); Table 2b, additional results) | IC90 (Rhizoctonia solani (Rs)) | IC90 (Diplodia maydis (Dm)) | IC90 (Botrtyis cinerea (Bc)) | IC90 [3] | IC90 [4]
1 | CCNC(=O)C(C)(C)n1c(=O)c2c(C)c(-n3nccn3)sc2n(C[C@H](OCCC#N)c2cc(F)ccc2OC)c1=O [Compound I-140] | 5 to 10 nM | 5 to 10 nM | > 50 µg/mL | 2.1 to 4 µg/mL (≈ 3.6 to 6.85 µM) | 1.01 to 2 µg/mL (≈ 1.73 to 3.43 µM) | 0.4 µg/mL (≈ 0.685 µM) | 1.1 to 2 µg/mL (≈ 1.88 to 3.43 µM) | 2.01 to 4 µg/mL (≈ 3.44 to 6.85 µM) | > 50 µg/mL | 0.25 to 1 µg/mL (≈ 0.428 to 1.71 µM) | 2.01 to 4 µg/mL (≈ 3.44 to 6.85 µM) | 1 to 5 nM | 1 to 5 nM | 0.08 µg/mL (≈ 0.137 µM) | 0.4 µg/mL (≈ 0.685 µM) | 0.4 µg/mL (≈ 0.685 µM) | 0.08 µg/mL (≈ 0.137 µM) | 0.4 µg/mL (≈ 0.685 µM)
2 | CNC(=O)C(C)(C)n1c(=O)c2c(C)c(-n3nccn3)sc2n(C[C@H](OCCC#N)c2cc(F)ccc2OC)c1=O [Compound I-141] | 5 to 10 nM | 5 to 10 nM | > 50 µg/mL | 2.1 to 4 µg/mL (≈ 3.69 to 7.02 µM) | 2.01 to 4 µg/mL (≈ 3.53 to 7.02 µM) | 2 µg/mL (≈ 3.51 µM) | 2.1 to 4 µg/mL (≈ 3.69 to 7.02 µM) | > 4.01 µg/mL | > 50 µg/mL | 2.1 to 4 µg/mL (≈ 3.69 to 7.02 µM) | 2.01 to 4 µg/mL (≈ 3.53 to 7.02 µM) | 1 to 5 nM | 1 to 5 nM | 0.08 µg/mL (≈ 0.14 µM) | 2 µg/mL (≈ 3.51 µM) | 2 µg/mL (≈ 3.51 µM) | 0.08 µg/mL (≈ 0.14 µM) | 10 µg/mL (≈ 17.6 µM)
3 | CCNC(=O)C(C)(C)n1c(=O)c2c(C)c(-n3nccn3)sc2n(C[C@H](OCCC#N)c2ccccc2OC)c1=O [Compound I-142] | 1 to 5 nM | 1 to 5 nM | > 50 µg/mL | 2.1 to 4 µg/mL (≈ 3.71 to 7.07 µM) | 1.01 to 2 µg/mL (≈ 1.79 to 3.54 µM) | 0.4 µg/mL (≈ 0.707 µM) | 2.1 to 4 µg/mL (≈ 3.71 to 7.07 µM) | 2.01 to 4 µg/mL (≈ 3.55 to 7.07 µM) | > 50 µg/mL | 1.1 to 2 µg/mL (≈ 1.94 to 3.54 µM) | 2.01 to 4 µg/mL (≈ 3.55 to 7.07 µM) | 1 to 5 nM | 1 to 5 nM | 0.08 µg/mL (≈ 0.141 µM) | 2 µg/mL (≈ 3.54 µM) | 0.4 µg/mL (≈ 0.707 µM) | 0.4 µg/mL (≈ 0.707 µM) | 2 µg/mL (≈ 3.54 µM)
4 | CNC(=O)C(C)(C)n1c(=O)c2c(C)c(-n3nccn3)sc2n(C[C@H](OCCC#N)c2ccccc2OC)c1=O [Compound I-143] | 5 to 10 nM | 5 to 10 nM | > 50 µg/mL | 2.1 to 4 µg/mL (≈ 3.81 to 7.25 µM) | 1.01 to 2 µg/mL (≈ 1.83 to 3.63 µM) | 10 µg/mL (≈ 18.1 µM) | 2.1 to 4 µg/mL (≈ 3.81 to 7.25 µM) | 2.01 to 4 µg/mL (≈ 3.64 to 7.25 µM) | > 50 µg/mL | 2.1 to 4 µg/mL (≈ 3.81 to 7.25 µM) | 2.01 to 4 µg/mL (≈ 3.64 to 7.25 µM) | 1 to 5 nM | 1 to 5 nM | 0.08 µg/mL (≈ 0.145 µM) | 10 µg/mL (≈ 18.1 µM) | 2 µg/mL (≈ 3.63 µM) | 0.08 µg/mL (≈ 0.145 µM) | > 50 µg/mL
